{"source": "paper PMC8253137", "about": "“Microbiota-derived butyrate is an endogenous HIF prolyl hydroxylase inhibitor” (Gut Microbes, 2021)", "molecular_target": "PHD2_181-402 (Homo sapiens, UniProt Q9GZT9)", "sequence (Q9GZT9 181-402)": "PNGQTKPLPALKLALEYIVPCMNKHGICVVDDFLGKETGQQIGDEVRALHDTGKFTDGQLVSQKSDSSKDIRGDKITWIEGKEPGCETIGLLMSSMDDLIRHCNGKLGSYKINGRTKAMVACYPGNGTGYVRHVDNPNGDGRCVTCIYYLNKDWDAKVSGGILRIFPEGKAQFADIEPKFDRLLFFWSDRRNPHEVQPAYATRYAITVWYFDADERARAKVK", "test": "WaterLOGSY 1D NMR binding", "conditions": "for binding to PHD2_181-402 (WaterLOGSY signal): 10 mM ligand, 25 μM PHD2_181-402", "excerpt": "Next, we established whether butyrate binds directly to PHD2_181-402 using 1D WaterLOGSY NMR.[28] This method enables sensitive and robust detection of binding (dissociation constants as weak as μM to low mM) based on the magnetization transfer between water molecules, proteins, and ligands of interest in close proximity via dipolar proton–proton cross-relaxation (nuclear Overhauser effect, NOE). […] Binding and non-binding ligands can be distinguished in a WaterLOGSY spectrum via their opposite signs in relation to water for their corresponding peaks.\nFollowing an established protocol, all NMR analyses were performed using PHD2_181-402 and the diamagnetic element (Zn^2+) rather than a paramagnetic element such as Fe^2+ that would result in inhibitive signal reduction or loss due to fast relaxation induced by the unpaired electron.[63]\nWater-Ligand Observed via Gradient SpectroscopY (WaterLOGSY): Measurements were carried out on a 600 MHz triple-resonance Bruker cryoprobe spectrometer.[28] Selective water inversion was achieved using an iBURP shaped pulse with 15 ms length and an inversion bandwidth of 0.4 ppm. The mixing time was set to 1 s, and the water was suppressed using double Watergate. 1024 scans were acquired with an interscan delay of 2 s. The sample concentration was 25 µM of PHD2_181-402 mixed with 10 mM of the different ligands in NMR buffer (Tris 50 mM, NaCl 20 mM, ZnCl2 100 μM) at pH 6.5.", "note": "Entries after “also recorded” stand apart in the source; their conditions may differ."}
{"smiles": "CCCC(=O)O", "note": "[Butyrate]", "values": [{"measurement": "binding to the 2-OG and PHD2_181-402 complex (WaterLOGSY)", "setting": "10 mM butyrate, 25 μM PHD2_181-402, with 150 μM 2-OG", "result": "could not bind; also recorded: absence of binding"}, {"measurement": "binding to PHD2_181-402 (WaterLOGSY signal)", "result": "clear positive signal, indicative of binding"}, {"measurement": "binding to PHD2_181-402 (WaterLOGSY signal)", "setting": "listed as Butyric acid", "result": "indicating binding"}]}
